Laboratory results: US10822586B2, “Agents and methods for treating and preventing seborrheic keratosis” (THE GENERAL HOSPITAL CORPORATION, priority 2012, dated 2020)
Entries after “also recorded” stand apart in the source; their conditions may differ. Read-outs that look alike come from different tables or passages of the source.

What was measured:
primary SK cells = assay: Screening for inducers of cell death in primary SK cells (SRB assay); type: cell-based, human; conditions: for SK cell death inducer activity / viability of SK cells in the screen: 500 nM; for SK cell death inducer activity / viability of SK cells in the screen / cell death in SK cells (follow-up): 24 hrs post treatment, SRB assay
Method: (§1) FIG. 2A, FIG. 2B, and FIG. 2C show data relating to the screening for small molecule inducers of cell death in primary SK cells. (FIG. 2A) 20 small molecule inhibitors (500 nM) of kinases within the MAPK-Raf and PIK3/Akt pathway were used to treat primary SK cells (in 12 well plates) harboring either FGFR3 or/and PIK3CA mutations or none. Cell death was detected 24 hrs post treatment using SRB assay. (FIG. 2B) Representative images of cells after compound treatment. (FIG. 2C) Same molecules were used on normal human keratinocytes in two different concentrations.
(§2) (FIG. 4A) SK cells were treated with two different Akt inhibitors and cell death was measured 24 hrs post treatment using SRB assay. (FIG. 4B) Akt inhibitors were profiled against the human kinome and shared targets were identified. (FIG. 4C) Cell death in SK cells after PKC inhibition. (FIG. 4D) cell death was measured in SK cells 72 hrs after transfection with control RNAi or RNAi for Akt1 and/or 2.
(§3) Due to the fragility of the primary cultures, RNAi transfection in a high throughput fashion turned out to be challenging, which prompted the use of a collection of specific small molecule kinase inhibitors to determine which kinase is essential for survival of SK cells but not of normal human keratinocytes. This level of selectivity was introduced in order to specifically target dependency caused by genomic alterations (both mutations and overexpression).
As recently reported this hyperphosphorylation is due to the docking of the compound in the ATP binding site, which prevents the Akt interaction with its downstream targets^27. As shown in FIG. 5B SK cells treated with C8 indeed have a hyperphosphorylated Akt, but importantly the Akt downstream signaling was shut down (FIG. 5C).
(§4) Small molecule kinase inhibitors usually have a high degree of specificity towards kinases in general but often these inhibitory effects are shared among several kinases, although in different doses. While this is in most of the cases considered a weakness of the approach, it can also give some evidence about other possible targets involved in the process of interest. Therefore, the inventors profiled the two effective compounds for their targets (in collaboration with Dr. N. Gray, DFCI) and determined if any other kinases might be involved in the survival of SK cells. […] In addition, the inventors were able to confirm this by down-modulation of Akt family members using an RNAi approach.

Akt = assay: Western blotting of Akt signaling in SK cells; type: cell-based, human
Method: (§5) (FIG. 3A) SK and normal keratinocytes were treated with C8 for 24 hrs and SRB stained. (FIG. 3B) and (FIG. 3C). SK cells were treated with C8 for 4 hrs and subjected to Western blotting for corresponding proteins.

[1] = system: normal human keratinocytes; assay: Cell death in normal human keratinocytes (SRB assay); type: cell-based; conditions: C8 dose-response, 24 hrs, SRB stained
Method: as §1
as §5, with “FIG. 3A, FIG. 3B, and FIG. 3C show data relating to small molecule-mediated inhibition of Akt signaling in primary SK cells. (FIG. 3A)” for “(FIG. 3A)”
as §3, with “overexpression). […]” for “overexpression).”

human kinome = assay: Profiling of Akt inhibitors against the human kinome; type: biochemical
Method: as §2, §4

Human SK explants = assay: Topical treatment of ex vivo human SK explants; type: cell-based
Method: It is now widely accepted that growth, differentiation and death of keratinocytes in culture differs in significant aspects from that in intact skin. Therefore, in order to closely reproduce the in vivo situation for SK tumors, the inventors utilized an ex vivo explant system^16 for culturing freshly excised SK lesions for up to 7 days. SK explants were treated by topical application of 1 mM of C8 for 48 hrs and stained for activated Caspase 3 to detect cell death.

SK cells = assay: Apoptosis in SK cells (cleaved PARP Western blotting, TUNEL staining); type: cell-based, human
Method: (§6) (FIG. 6A) SK cells were treated with the Akt inhibitor either for 24 hrs to measure levels of cleaved PARP by Western blotting or (FIG. 6B) for 48 hrs to detect TUNEL staining. (FIG. 6C) 24 hrs post treatment pro-apoptotic Akt targets were analyzed by WB.
It is well-established that activation of Akt in cells is known to elicit pro-survival effects through activation/suppression of different targeted pathways.

[2] = system: pro-apoptotic Akt targets (FoxO1/3, MDM2, p53); assay: Western blot of pro-apoptotic Akt targets in SK cells; type: cell-based, human; conditions: 24 hrs post treatment, WB
Method: as §6
Therefore, it was investigated if any of the prominent pro-apoptotic targets of Akt were involved in this process. A decrease of phosphorylated levels of FoxO1/3 as well as of phosphorylated MDM2 was observed, which correlated with increased p53 levels upon treatment with the Akt inhibitor […].

[3] = SK cells treated 4 hrs, Western blotting

Compound: Clc1ccc(C2(c3ccc(-c4cn[nH]c4)cc3)CCNCC2)cc1 [C9]
- SK cell death inducer activity / viability of SK cells in the screen (primary SK cells): did not affect the viability
- cell death in SK cells (follow-up) (primary SK cells): did not show any effects

Compound: O=c1c(O)c(-c2ccc(O)cc2)oc2cc(O)cc(O)c12 [kaempferol]
- cell death in SK cells (primary SK cells; within 48 hours): induce cell death
- Akt signaling in SK cells (Akt): block Akt signaling

Compound: COc1ccc(C[C@H](N)C(=O)N[C@H]2[C@@H](O)[C@H](n3cnc4c(N(C)C)ncnc43)O[C@@H]2CO)cc1 [pyromycin, puromycin]
- cell death in SK cells (primary SK cells): inducer of cell death

Compound: Cc1n[nH]c2ccc(-c3cncc(OC[C@@H](N)Cc4c[nH]c5ccccc45)c3)cc12 [C8]
- SK cell death inducer activity / viability of SK cells in the screen (primary SK cells): very strong activity
- cell death in SK cells (follow-up) (primary SK cells): dose-response killing effect
- effect on normal keratinocytes [1]: remained unaffected even at higher doses
- Akt downstream signaling (Akt; [3]): shut down
- phosphorylation status of Akt at T308 and 5473 (Akt; [3]): paradoxical hyperphosphorylation
- shared targets in kinase profiling (human kinome): only members of the Akt and PKC family were shared targets
- cell death in SK explants (activated Caspase 3) (Human SK explants; topical application of 1 mM for 48 hrs): significant cell death; also recorded: induction of cell death
- tissue destruction in SK explants (H&E staining) (Human SK explants; topically treated with 1 mM for 48 hrs): tissue destruction
- apoptosis as detected by cleaved PARP levels and TUNEL staining (SK cells; 24 hrs (cleaved PARP), 48 hrs (TUNEL)): induction of apoptosis
- TUNEL staining (SK cells; SK cells, 48 hrs): positive
- p53 levels [2]: increased
- phosphorylated MDM2 [2]: decrease
- phosphorylated levels of FoxO1/3 [2]: decrease

Compound: Cc1c2ccncc2c(C)c2c1[nH]c1ccccc12 [elipticine, ellipticine]
- cell death in SK cells (primary SK cells; within 48 hours): induce cell death
- Akt signaling in SK cells (Akt): block Akt signaling

Compound: CCn1c(-c2nonc2N)nc2c(C#CC(C)(C)O)ncc(OC[C@H]3CCCNC3)c21 [GSK690693]
- shared targets in kinase profiling (human kinome): only members of the Akt and PKC family were shared targets

Compound: COc1ccc(C2=N[C@@H](c3ccc(Cl)cc3)[C@@H](c3ccc(Cl)cc3)N2C(=O)N2CCNC(=O)C2)c(OC(C)C)c1 [Nutlin-3]
- cell death in SK cells (primary SK cells): induces cells death
